Experimental data: patent US10669273B2, “Use of aza-tryptanthrin derivatives as inhibitors of IDO1 and/or TDO” (Peking University, priority 2016, dated 2020)
pIC50: −log10 of the molar value. Counter-ions that a name gives are not always drawn. Like-named read-outs stand apart in the source and are kept apart here.

Columns and labels:
T cells = details: cited from earlier work
TNF-α = details: concentration up to 20 μM; cited from earlier work
IDO-1 = IDO-1 (Homo sapiens (Human), UniProt P14902); assay: Indoleamine-2,3-dioxygenase 1 inhibitory activity (absorbance at 321 nm); type: biochemical
IDO-1, sequence (P14902 whole entry): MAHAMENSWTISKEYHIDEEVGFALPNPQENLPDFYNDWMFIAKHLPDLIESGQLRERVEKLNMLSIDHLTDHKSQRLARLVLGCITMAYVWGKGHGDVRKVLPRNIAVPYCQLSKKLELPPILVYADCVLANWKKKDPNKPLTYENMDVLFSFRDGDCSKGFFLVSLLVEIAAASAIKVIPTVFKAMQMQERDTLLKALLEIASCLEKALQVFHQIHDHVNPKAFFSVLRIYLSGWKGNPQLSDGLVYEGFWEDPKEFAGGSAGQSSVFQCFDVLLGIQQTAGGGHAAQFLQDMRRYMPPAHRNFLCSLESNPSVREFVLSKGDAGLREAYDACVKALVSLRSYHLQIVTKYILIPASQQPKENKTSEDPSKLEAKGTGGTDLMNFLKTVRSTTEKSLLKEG

TDO = TDO (Homo sapiens (Human), UniProt P48775); assay: Tryptophan-2,3-dioxygenase inhibitory activity (absorbance at 321 nm); type: biochemical; details: read-out: TDO Inhibition rate
TDO, sequence (P48775 whole entry): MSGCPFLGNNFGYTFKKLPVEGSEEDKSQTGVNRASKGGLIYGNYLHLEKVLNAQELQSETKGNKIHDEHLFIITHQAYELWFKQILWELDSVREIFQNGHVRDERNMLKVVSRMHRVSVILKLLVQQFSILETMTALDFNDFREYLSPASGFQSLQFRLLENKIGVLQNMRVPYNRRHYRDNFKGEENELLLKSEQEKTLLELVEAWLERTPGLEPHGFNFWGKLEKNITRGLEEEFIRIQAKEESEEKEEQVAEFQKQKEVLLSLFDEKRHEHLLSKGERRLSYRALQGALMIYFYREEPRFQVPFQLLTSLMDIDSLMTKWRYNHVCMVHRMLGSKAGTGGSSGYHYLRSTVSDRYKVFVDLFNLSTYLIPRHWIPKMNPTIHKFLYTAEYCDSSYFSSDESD
Protocol: Experimental method: TDO can oxidatively cleave the indole ring of tryptophan to form N-formylkynurenine. Referring to the method in the reference (Eddy W. Yue, et al. J. Med. Chem. 2009, 52, 7364-7367), a detection buffer containing 50 nM TDO, 10μM inhibitor, 200μM tryptophan, and the like were sequentially added thereto at room temperature. Due to the formation of N-formylkynurenine, the reaction rate was recorded by the increasing absorbance of the solution at 321 nm. IC50 values were calculated using Prism GraphPad software.

Lewis lung cancer = Lewis lung cancer in mice, in vivo anti-tumor experiment; design: species or system C57BL/6J mice; details: intraperitoneal 20 mg/Kg, 11 days
melanoma B16 [1] = assay: Repeated verification, melanoma B16 in mice experiment; type: in vivo, C57BL/6J mice; details: intragastric 20 mg/kg once daily, 14 days
Protocol: The in vivo efficacy of compound was tested in three groups (6 in each group) of C57BL/6J mice bearing melanoma B16. CY-1-26 hydrochloride was intragastrically administered at 20 mg/kg (suspended in 0.5% sodium carboxymethyl cellulose solution), and 1-MT was a positive control (200 mg/kg, suspended in 0.5% sodium carboxymethyl cellulose solution), the blank control was 0.5% sodium carboxymethyl cellulose solution, all once daily dose. On the day of the first dose, the relevant indicators were observed, measured and recorded. At the end of the experiment, the tumor-bearing mice were sacrificed and the tumor pieces were dissected and weighed.
The tumor-bearing mice were administered by continuous intragastric administration for 14 days. The body weight of the animals in the drug-administered group was slightly slower than that of the negative control group. The animals were in good condition and no obvious side effects were observed.
After 14 days of administration, the animals were euthanized, the subcutaneous tumors were dissected, weighed, and the animals were dissected for gross observation.

melanoma B16 [2] = assay: Melanoma B16 in mice experiment; type: in vivo, C57BL/6J mice; details: intragastric once daily, 10 days; CY-1-26 20 mg/kg, 1-MT 200 mg/kg
Protocol: The in vivo efficacy of compound was tested with C57BL/6J mice bearing melanoma B16. The intragastric administration was 20 mg/kg, and 1-MT was a positive control (200 mg/kg), which was once daily. The observation and measurement were started on the day of the first administration, and the relevant indicators were recorded. The tumor-bearing mice were sacrificed at the end of the experiment, and the tumor pieces were dissected and weighed.
The tumor-bearing mice were administered by continuous intragastric administration for 10 days. The body weight of the animals in the drug-administered group was slightly slower than that of the negative control group. The animals were in good condition and no obvious side effects were observed.
After 10 days of administration, the animals were euthanized, the subcutaneous tumors were dissected, weighed, and the animals were dissected for gross observation.

[3] = 20 nM IDO-1, 2 mM D-tryptophan, read-out: IDO-1 inhibitory activity, IC50
[4] = Table 1, comparison with tryptanthrins 5a, 5b, 5c, 5i, read-out: Comparison of inhibitory activity of the IDO1, IC50
[5] = compound at 10 μM, 50 nM TDO, 200 μM tryptophan

Row | SMILES | pIC50 (IDO-1; [3]) | also measured
1 | O=C1c2cc(F)ccc2-n2c1nc1ccccc1c2=O | – | proliferation of T cells (T cells): can promote the proliferation of T cells
2 | O=C1c2cc([N+](=O)[O-])ccc2-n2c1nc1cccnc1c2=O [8-nitro-1-aza-tryptanthrin] | – | activity in production of TNF-α (TNF-α): did not exhibit activity
3 | O=C1c2ccccc2-n2c1nc1ncccc1c2=O [CY-1-1, pyrido[2′,3′:4,5]pyrimido[1,2-α]indole-5,11-dione] | 6.00 to 6.96 | pIC50 (IDO-1; [4]): 6.00 to 7.00
4 | O=C1c2cc(F)ccc2-n2c1nc1ncccc1c2=O [CY-1-2, 9-fluoropyrido[2′,3′:4,5]pyrimido[1,2-c]indole-5,11-dione] | – | inhibition at 10 µM (TDO; [5]): 44%
5 | O=C1c2cc(OC(F)(F)F)ccc2-n2c1nc1ncccc1c2=O [CY-1-3, 9-(trifluoromethoxy)pyrido[2′,3′:4,5]pyrimido[1,2-c]indole-5,11-dione] | – | inhibition at 10 µM (TDO; [5]): 16%
6 | O=C1c2cc([N+](=O)[O-])ccc2-n2c1nc1ncccc1c2=O [CY-1-4, 9-nitropyridine[2′,3′:4,5]pyrimido[1,2-c]indole-5,11-dione] | – | inhibition at 10 µM (TDO): 97%
7 | O=C1c2cc(Cl)ccc2-n2c1nc1ncccc1c2=O [CY-1-5, 9-chloropyrido[2′,3′:4,5]pyrimido[1,2-c]indole-5,11-dione] | – | inhibition at 10 µM (TDO; [5]): 35%
8 | COc1ccc2c(c1)C(=O)c1nc3ncccc3c(=O)n1-2 [CY-1-6, 9-methoxypyrido[2′,3′:4,5]pyrimido[1,2-c]indole-5,11-dione] | 6.00 to 6.96 | –
9 | Cc1ccc2c(c1)C(=O)c1nc3ncccc3c(=O)n1-2 [CY-1-7, 9-methylpyrido[2′,3′:4,5]pyrimido[1,2-c]indole-5,11-dione] | 6.00 to 6.96 | pIC50 (IDO-1; [4]): 6.00 to 7.00
10 | O=C1c2ccccc2-n2c1nc1cnccc1c2=O [CY-1-8, pyrido[3′,4′:4,5]pyrimido[1,2-c]indole-5,11-dione] | 6.00 to 6.96 | pIC50 (IDO-1; [4]): 6.00 to 7.00
11 | COc1ccc2c(c1)C(=O)c1nc3cnccc3c(=O)n1-2 [CY-1-9, 9-methoxypyrido[3′,4′:4,5]pyrimido[1,2-c]indole-5,11-dione] | 5.00 to 5.96 | –
12 | O=C1c2cc(Cl)ccc2-n2c1nc1cnccc1c2=O [CY-1-10, 9-chloropyrido[3′,4′: 4,5]pyrimido[1,2-α]indole-5,11-dione] | 6.00 to 6.96 | inhibition at 10 µM (TDO): 8%
13 | O=C1c2cc(F)ccc2-n2c1nc1cnccc1c2=O [CY-1-11, 9-fluoropyrido[3′,4′:4,5]pyrimido[1,2-α]indole-5,11-dione] | 6.00 to 6.96 | pIC50 (IDO-1; [4]): 6.00 to 7.00
14 | O=c1c2cccnc2nc2n1-c1ccccc1C2=NO [CY-1-12, 11-(hydroxyimino)pyrido[2′,3′:4,5]pyrimido[1,2-α]indol-5(11H)-one] | 5.00 to 5.96 | –
15 | O=c1c2cccnc2nc2n1-c1ccc(Cl)cc1C2=NO [CY-1-13, 9-chloro-11-(hydroxyimino)pyrido[2′,3′:4,5]pyrimido[1,2-α]indole-5(11H)-one] | 6.00 to 6.96 | inhibition at 10 µM (TDO; [5]): 6%
16 | Cc1ccc2c(c1)C(=NO)c1nc3ncccc3c(=O)n1-2 [CY-1-14, 11-(hydroxyimino)-9-methylpyrido[2′,3′: 4,5]pyrimido[1,2-α]indole-5 (11H)-one] | 5.00 to 5.96 | –
17 | COc1ccc2c(c1)C(=NO)c1nc3ncccc3c(=O)n1-2 [CY-1-15, 11-(hydroxyimino)-9-methoxypyrido[2′,3′:4,5]pyrimido[1,2-α]indole-5(11H)-one] | 5.00 to 5.96 | –
18 | CN(C)CCON=C1c2ccccc2-n2c1nc1ncccc1c2=O [CY-1-16, 11-((2-(dimethylamino)ethoxy)imino)pyrido[2′,3′:4,5]pyrimido[1,2-α]indole-5(11H)-one] | 6.00 to 6.96 | –
19 | CN(C)CCON=C1c2cc([N+](=O)[O-])ccc2-n2c1nc1ncccc1c2=O [CY-1-17, 11-((2-(dimethylamino)ethoxy)imino)-9-nitropyrido[2′,3′:4,5]pyrimido[1,2-α]indol-5(11H)-one] | – | inhibition at 10 µM (TDO; [5]): 64%; tumor inhibition rate (tumor weight) (Lewis lung cancer): 51.8%
20 | N=C(N)NN=C1c2cc([N+](=O)[O-])ccc2-n2c1nc1ncccc1c2=O [CY-1-23, 2-(9-nitro-5-oxopyrido[2′,3′:4,5]pyrimido[1,2-c]indol-11(5H)-ylidene)hydrazine-1-carboximidamide] | – | inhibition at 10 µM (TDO): 86%
21 | CCON=C1c2cc([N+](=O)[O-])ccc2-n2c1nc1ncccc1c2=O [CY-1-26 hydrochloride] | – | tumor inhibition rate (tumor weight) (melanoma B16 [1]): 46.0%
22 | NC(=S)NN=C1c2cc([N+](=O)[O-])ccc2-n2c1nc1ncccc1c2=O [CY-1-29, 2-(9-nitro-5-oxopyrido[2′,3′:4,5]pyrimido[1,2-c]indol-11(5H)-ylidene)hydrazine-1-carbothioamide] | – | inhibition at 10 µM (TDO; [5]): 93%
23 | Cn1cc(CC(N)C(=O)O)c2ccccc21 (centres unmarked) [Compound 1-MT, reference compound] | – | tumor inhibition rate (tumor weight) (melanoma B16 [2]): 26.3%
24 | O=P1(N(CCCl)CCCl)NCCCO1 (centres unmarked) [cyclophosphamide, reference compound] | – | tumor inhibition rate (tumor weight) (Lewis lung cancer): 29.9%

Further lines, with some results ahead:

Row | pIC50 (IDO-1; [3]) | SMILES | also measured
25 | 6.00 to 6.96 | CN(C)CCON=C1c2cc(Cl)ccc2-n2c1nc1ncccc1c2=O [CY-1-18, 9-chloro-11-((2-(dimethylamino)ethoxy)imino)pyrido[2′,3′:4,5]pyrimido[1,2-α]indol-5(11H)-one] | –
26 | 6.00 to 6.96 | CN(C)CCON=C1c2cc(F)ccc2-n2c1nc1ncccc1c2=O [CY-1-19, 11-((2-(dimethylamino)ethoxy)imino)-9-fluoropyrido[2′,3′:4,5]pyrimido[1,2-α]indol-5(11H)-one] | –
27 | 5.00 to 5.96 | CN(C)CCCON=C1c2cc(Cl)ccc2-n2c1nc1ncccc1c2=O [CY-1-20, 9-chloro-11-((3-(dimethylamino)propoxy)imino)pyrido[2′,3′:4,5]pyrimido[1,2-α]indol-5(11H)-one] | –
28 | 6.00 to 6.96 | O=c1c2cccnc2nc2n1-c1ccc([N+](=O)[O-])cc1C2=NOCCO [CY-1-21, 11-((2-hydroxyethoxy)imino)-9-nitropyrido[2′,3′:4,5]pyrimido[1,2-α]indol-5(11H)-one] | –
29 | 6.00 to 6.96 | O=c1c2cccnc2nc2n1-c1ccc([N+](=O)[O-])cc1C2=NOS(=O)(=O)O [CY-1-24, (((9-nitro-5-oxopyrido[2′,3′:4,5]pyrimido[1,2-α]indol-11(5H)-ylidene)amino)oxy) sulfonic acid] | –
30 | 6.00 to 6.96 | CON=C1c2cc([N+](=O)[O-])ccc2-n2c1nc1ncccc1c2=O [CY-1-25, 11-(methoxyimino)-9-nitropyrido[2′,3′: 4,5]pyrimido[1,2-α]indol-5 (11H)-one] | –
31 | 5.00 to 5.96 | CCON=C1c2cc([N+](=O)[O-])ccc2-n2c1nc1ncccc1c2=O [CY-1-26, 11-(ethoxyimino)-9-nitropyrido[2′,3′:4,5]pyrimido[1,2-α]indol-5(11H)-one] | tumor inhibition rate (tumor weight) (melanoma B16 [2]): 33.0%
32 | 5.00 to 5.96 | C=CCON=C1c2cc([N+](=O)[O-])ccc2-n2c1nc1ncccc1c2=O [CY-1-27, 11-((allyloxy)imino)-9-nitropyrido[2′,3′:4,5]pyrimido[1,2-α]indol-5(11H)-one] | –
33 | 5.00 to 5.96 | COc1ccc2c(c1)C(=NNC(=S)N(C)C)c1nc3ncccc3c(=O)n1-2 [CY-1-30, 2-(9-methoxy-5-oxopyrido[2′,3′:4,5]pyrimido[1,2-α]indol-11(5H)-ylidene)-N,N-di methyl-hydrazine-1-carbothioamide] | –
